Measurements from patent US20040097587A1, “Compositions and methods of treatment of ulcerating diseases, burns, and related conditions” (priority 2003, published 2004).

Tested on: venous ulcer
Test: Case of a person with venous ulcer and related conditions treated with oral isotretinoin
Type: in vivo, human
Settings: approximately 80 milligrams per day for two months
Source text: Preferred unit dosage formulations are those containing a daily dose or unit, daily sub-dose, or an appropriate fraction thereof, of the administered ingredient. […] Acad. of Dermatol, 45, 462-465, which is herein incorporated by reference.

## CC1=C(/C=C/C(C)=C/C=C/C(C)=C\C(=O)O)C(C)(C)CCC1 [isotretinoin, 13-cis-retinoic acid]
Person having venous ulcer and related conditions for five months
  overall clinical outcome of venous ulcer and related conditions: significant improvement
person
  lesions: improved
  venous ulcer healing: healed
  vessel prominence: significantly decreased
